Measured values as given in US11021479B2, “Pyridoquinazoline derivatives useful as protein kinase inhibitors” (ONCOSTELLAE, S.L., priority 2017, dated 2021).

Assays:
Format in all cases: biochemical
Human ARK5/NUAK1 = biological target: T1, Human ARK5/NUAK1 (Homo sapiens, UniProt O60285); test: ARK5 activity inhibition test (Reaction Biology kit, 33P-ATP filter assay); settings: ATP 10 μM, peptide substrate 20 μM, 120 min; read-out: ARK5 enzymatic activity (IC50) score
T1 construct: purchased Reaction Biology ARK5/NUAK1
T1 sequence (O60285 1-661): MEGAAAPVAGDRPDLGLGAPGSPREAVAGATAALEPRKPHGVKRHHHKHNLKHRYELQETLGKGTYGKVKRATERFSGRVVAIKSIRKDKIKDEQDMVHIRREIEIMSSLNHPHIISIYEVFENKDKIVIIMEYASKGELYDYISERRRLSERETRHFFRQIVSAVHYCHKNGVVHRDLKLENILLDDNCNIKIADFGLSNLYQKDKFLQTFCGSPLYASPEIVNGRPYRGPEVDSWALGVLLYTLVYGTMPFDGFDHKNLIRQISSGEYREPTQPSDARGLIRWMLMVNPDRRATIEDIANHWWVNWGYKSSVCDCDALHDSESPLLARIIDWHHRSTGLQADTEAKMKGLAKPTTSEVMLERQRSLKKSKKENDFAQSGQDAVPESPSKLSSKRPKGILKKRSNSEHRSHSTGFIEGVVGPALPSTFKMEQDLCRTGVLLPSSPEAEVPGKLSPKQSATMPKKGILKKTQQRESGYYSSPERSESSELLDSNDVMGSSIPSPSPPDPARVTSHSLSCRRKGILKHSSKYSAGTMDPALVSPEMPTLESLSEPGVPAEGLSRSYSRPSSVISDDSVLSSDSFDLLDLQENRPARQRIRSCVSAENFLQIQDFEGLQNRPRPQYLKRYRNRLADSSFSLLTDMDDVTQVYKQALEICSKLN
Experimental: Activity test was carried out using the kit from Reaction Biology (CAT #: ARK5/NUAK1). The test uses enzyme Human ARK5/NUAK1 and the substrate is the peptide […] (SEQ ID NO: 1), 20 μM and ATP 10 μM. Other reagents are the following: Base Reaction buffer; 20 mM Hepes (pH 7.5), 10 mM MgCl2, 1 mM EGTA, 0.02% Brij35, 0.02 mg/ml BSA, 0.1 mM Na3VO4, 2 mM DTT, 1% DMSO.
The reaction was carried out following the instructions of manufacturer. Briefly, kinase/substrate pairs were prepared in reaction buffer. Compounds were delivered into the reaction, followed 20 minutes later by addition of a mixture of ATP (Sigma, St. Louis Mo.) and ^33P ATP (Perkin Elmer, Waltham Mass.) to a final concentration of 10 μM. Reactions were carried out at room temperature for 120 min, followed by spotting of the reactions onto P81 ion exchange filter paper (Whatman Inc., Piscataway, N.J.). Unbound phosphate was removed by extensive washing of filters in 0.75% phosphoric acid. […] IC50 values and curve fits were obtained using Prism (GraphPad Software).

JAK1 = biological target: T2, JAK1 (Homo sapiens, UniProt P23458); test: Functional assay of protein Janus kinases (Caliper mobility shift), JAK1; settings: ATP 100 μM, incubation 150 min; read-out: JAK1 enzymatic activity (IC50) score
T2 construct: purchased Carna Biosciences 08-144
T2 sequence (P23458 850-1154 limits assumed): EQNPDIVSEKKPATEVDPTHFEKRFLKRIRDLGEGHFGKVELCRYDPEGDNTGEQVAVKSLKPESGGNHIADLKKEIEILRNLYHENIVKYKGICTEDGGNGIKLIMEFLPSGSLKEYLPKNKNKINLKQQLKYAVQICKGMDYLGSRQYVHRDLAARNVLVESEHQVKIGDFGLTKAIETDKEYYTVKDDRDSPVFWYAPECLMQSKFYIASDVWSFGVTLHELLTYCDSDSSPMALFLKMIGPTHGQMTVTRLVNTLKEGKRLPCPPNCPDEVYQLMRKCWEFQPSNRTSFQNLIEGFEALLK
Experimental: (§1) The functional assays of protein Janus kinases were carried out in 384-well plates using a final volume of 30 μl. […] The reaction was reads in a “Caliper EzReader LabChip 3000” (Caliper, Hopkinton, Mass.) reader, based on electrophoretic mobility of the fluorescent substrate and the phosphorylated product.
(§2) The inhibition percentages were calculated by comparison between control reactions, for 100% of inhibition and reactions with only DMSO for 0% of inhibition.

JAK2 = biological target: T3, JAK2 (Homo sapiens, UniProt O60674); test: Functional assay of protein Janus kinases (Caliper mobility shift), JAK2; settings: ATP 300 μM, incubation 30 min; read-out: JAK2 enzymatic activity (IC50) score
T3 construct: purchased Carna Biosciences 08-045
T3 sequence (O60674 826-1132 limits assumed): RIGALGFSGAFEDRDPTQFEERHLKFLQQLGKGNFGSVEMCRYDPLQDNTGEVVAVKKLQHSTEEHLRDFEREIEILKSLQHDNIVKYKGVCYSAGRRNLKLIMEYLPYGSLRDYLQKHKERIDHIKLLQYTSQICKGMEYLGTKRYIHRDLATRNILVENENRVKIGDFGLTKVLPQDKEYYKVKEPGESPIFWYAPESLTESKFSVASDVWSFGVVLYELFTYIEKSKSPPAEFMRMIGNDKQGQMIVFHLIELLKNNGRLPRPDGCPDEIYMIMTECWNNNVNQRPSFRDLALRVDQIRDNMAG
Experimental: as §1, §2

JAK3 = biological target: T4, JAK3 (Homo sapiens, UniProt P52333); test: Functional assay of protein Janus kinases (Caliper mobility shift), JAK3; settings: ATP 8 μM, incubation 30 min; read-out: JAK3 enzymatic activity (IC50) score
T4 construct: purchased Carna Biosciences 08-046
T4 sequence (P52333 795-1124 limits assumed): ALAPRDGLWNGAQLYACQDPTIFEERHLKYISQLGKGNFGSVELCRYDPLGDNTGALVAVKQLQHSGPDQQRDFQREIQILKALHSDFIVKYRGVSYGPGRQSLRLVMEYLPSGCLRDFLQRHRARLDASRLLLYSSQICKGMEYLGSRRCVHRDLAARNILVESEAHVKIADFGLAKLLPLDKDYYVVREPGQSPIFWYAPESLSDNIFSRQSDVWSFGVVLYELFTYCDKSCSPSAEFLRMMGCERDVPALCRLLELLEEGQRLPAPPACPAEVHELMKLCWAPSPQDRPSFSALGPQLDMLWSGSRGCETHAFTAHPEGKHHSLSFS
Experimental: as §1, §2

TYK2 = biological target: T5, TYK2 (Homo sapiens, UniProt P29597); test: Functional assay of protein Janus kinases (Caliper mobility shift), TYK2; settings: ATP 20 μM, incubation 45 min; read-out: TYK2 enzymatic activity (IC50) score
T5 construct: purchased Carna Biosciences 08-147
T5 sequence (P29597 871-1187 limits assumed): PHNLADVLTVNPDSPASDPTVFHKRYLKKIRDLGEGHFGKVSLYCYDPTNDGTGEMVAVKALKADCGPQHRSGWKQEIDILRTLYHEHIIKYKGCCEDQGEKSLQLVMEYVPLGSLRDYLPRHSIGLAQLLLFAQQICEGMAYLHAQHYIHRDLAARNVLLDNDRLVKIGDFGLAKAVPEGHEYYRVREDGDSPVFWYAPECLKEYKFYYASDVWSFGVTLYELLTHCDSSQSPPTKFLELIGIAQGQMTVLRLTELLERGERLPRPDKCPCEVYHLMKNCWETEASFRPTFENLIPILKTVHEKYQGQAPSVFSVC
Experimental: as §1, §2

Compound `O=C(NC1CCCCC1)c1cccn2c(=O)c3cc(C4CC4)ccc3nc12` [Example 1, N-cyclohexyl-2-cyclopropyl-11-oxo-11H-pyrido[2,1-b]quinazoline-6-carboxamide] has an IC50 (Human ARK5/NUAK1) of less than 100 nM, an IC50 (JAK1) greater than 1000 nM and an IC50 (JAK2) greater than 1000 nM. It also gave an IC50 (JAK3) of less than 100 nM and an IC50 (TYK2) of less than 100 nM.
`O=C(NC1CCCC1)c1cccn2c(=O)c3cc(C4CC4)ccc3nc12` [Example 2, N-cyclopentyl-2-cyclopropyl-11-oxo-11H-pyrido[2,1-b]quinazoline-6-carboxamide] showed an IC50 (Human ARK5/NUAK1) of less than 100 nM, an IC50 (JAK1) greater than 1000 nM and an IC50 (JAK2) greater than 1000 nM. For the same compound, the IC50 (JAK3) was less than 100 nM and the IC50 (TYK2) was less than 100 nM.
Work on `COc1ccc2nc3c(C(=O)NC4CCCCC4)cccn3c(=O)c2c1` [Example 20, N-cyclohexyl-2-methoxy-11-oxo-11H-pyrido[2,1-b]quinazoline-6-carboxamide] yielded an IC50 (Human ARK5/NUAK1) of less than 100 nM, an IC50 (JAK3) of less than 100 nM and an IC50 (TYK2) of less than 100 nM.
`O=C(NC1CCCCC1)c1cccn2c(=O)c3cc(-c4ccc(F)cc4)ccc3nc12` [Example 29, N-cyclohexyl-2-(4-fluorophenyl)-11-oxo-11H-pyrido[2,1-b]quinazoline-6-carboxamide] was tested, and the IC50 (Human ARK5/NUAK1) was less than 100 nM, the IC50 (JAK1) was greater than 1000 nM and the IC50 (JAK2) was greater than 1000 nM. It also gave an IC50 (JAK3) of 100 to 1000 nM and an IC50 (TYK2) greater than 1000 nM.
Compound `O=C(NC1CCCCC1)c1cccn2c(=O)c3cc(-c4ccncc4)ccc3nc12` [Example 33, N-cyclohexyl-11-oxo-2-(pyridin-4-yl)-11H-pyrido[2,1-b]quinazoline-6-carboxamide] has an IC50 (Human ARK5/NUAK1) of less than 100 nM, an IC50 (JAK1) greater than 1000 nM and an IC50 (JAK2) greater than 1000 nM. For the same compound, the IC50 (JAK3) was less than 100 nM and the IC50 (TYK2) was less than 100 nM.
Work on `CN1CCN(c2ccc3nc4c(C(=O)NC5CCCCC5)cccn4c(=O)c3c2)CC1` [Example 36, N-cyclohexyl-2-(4-methylpiperazin-1-yl)-11-oxo-11H-pyrido[2,1-b]quinazoline-6-carboxamide] yielded an IC50 (Human ARK5/NUAK1) of less than 100 nM, an IC50 (JAK1) greater than 1000 nM and an IC50 (JAK2) greater than 1000 nM. For the same compound, the IC50 (JAK3) was less than 100 nM and the IC50 (TYK2) was less than 100 nM.
Work on `O=C(NC1CCCCC1)c1cccn2c(=O)c3cc(N4CCOCC4)ccc3nc12` [Example 38, N-cyclohexyl-2-morpholino-11-oxo-11H-pyrido[2,1-b]quinazoline-6-carboxamide] yielded an IC50 (Human ARK5/NUAK1) of less than 100 nM, an IC50 (JAK1) greater than 1000 nM and an IC50 (JAK2) greater than 1000 nM. For the same compound, the IC50 (JAK3) was less than 100 nM and the IC50 (TYK2) was less than 100 nM.
